Data set [1] is described as follows: Isotretinoin pharmacokinetics, single sample on cycle 1 day 14. The note with it: human, serum, oral, 80 mg/m^2/dose, 4 hr after the last dose of isotretinoin in cycle 1 (80 mg/m^2/dose twice daily), 12 patients.
Data set [2] deals with acetylated histone H3 in PBMC. Description: PBMC histone acetylation. Type of data set: in vivo, patients. The note with it: for Mean percent change in histone acetylation (HA) levels from baseline: PBMC.
Data set [3] concerns refractory/recurrent neuroblastoma. Description: Antitumor activity. The note with it: vorinostat + isotretinoin. The data set is classed as in vivo, patients.
The conditions of data set [4]: dosed continuously; pediatric relapsed solid tumors; cited from earlier work.
The subject of data set [5] is histone acetylation in PBMC. The settings on record: cited from earlier work.
Data set [6] concerns xenografts from neuroblastoma cell lines. The settings on record: xenografts from four of six neuroblastoma cell lines; cited from earlier work.
A short description of data set [7]: Vorinostat serum pharmacokinetics, cycle 1.
The nature of data set [8]: Phase I dose escalation and toxicity assessment. The note with it: dose level 5 (430 mg/m^2/dose) + isotretinoin, n = 6.
[9] abbreviates: all dose levels, n = 23/28, geometric mean (95% confidence interval), oral, cycle 1.
The mark [10] stands for this setting: dose level 1 (180 mg/m^2/dose), n = 6/7, geometric mean (95% confidence interval), oral, cycle 1.
The mark [11] stands for this setting: dose level 5—MTD (430 mg/m^2/dose), n = 9/12, geometric mean (95% confidence interval), oral, cycle 1.

Like-named read-outs stand apart in the source and are kept apart here.

The text below walks through data of publication PMC6040651 (Pediatric blood & cancer, 2018).

`CC1=C(/C=C/C(C)=C/C=C/C(C)=C\C(=O)O)C(C)(C)CCC1` [isotretinoin, cis-13-retinoic acid]: the concentration at 4 h in data set [1] (Median serum concentration) is 830 ng/mL; in data set [1] (Serum concentration, range), 190 to 1400 ng/mL.
For the compound `O=C(CCCCCCC(=O)Nc1ccccc1)NO` [vorinostat, suberoylanilide hydroxamic acid], the “Percent change from baseline in HA levels, dose level 5 compared to dose levels 1–4” value in data set [2] (1 hr post treatment, P = 0.009, difference persisted at hours 6 and 24) is “significantly greater”. Besides, the “Mean percent change in histone acetylation (HA) levels from baseline” value in data set [2] (dose level 5, hour 1, 6 patients) was 18.5%; in data set [2] (dose level 5, hour 6, 6 patients), 21.9%; in data set [2] (dose level 5, hour 24, 5 patients), 14.4%; in data set [2] (dose levels 1–4, hour 1, 7 patients) it was “–3.9%”; in data set [2] (dose levels 1–4, hour 6, 5 patients), “–2.9%”. Also, in data set [3] (all dose levels, 19 patients evaluable for response), the “Objective responses (CR or PR)” value is “No objective responses”. For the same compound, the “Patients who received 11–15 cycles of therapy” value in data set [3] (7/29 patients) amounted to 24%. For the same compound, in data set [3] (11 of the 29 patients), the “Patients completing ≥4 cycles without tumor progression” value is given as 38%. For the same compound, the “6-month PFS rate” value in data set [3] (entire cohort of 29 patients) was 0.36 ± 0.09. The “Median PFS” value in data set [3] (entire cohort of 29 patients, 95% confidence interval 1.6–11.0 months) turned out to be 2.0 months. In addition, in data set [4], the “MTD of vorinostat alone” value is on record as 230 mg/m^2/day. Further, the “Histone acetylation in PBMC” value in data set [5] (continuous vorinostat MTD (230 mg/m^2/dose)) is “only transient PBMC HA was observed”; in data set [5] (highest continuous dose level of vorinostat (300 mg/m^2/dose)), “consistent PBMC HA”. For the same compound, in data set [6], the “Event-free survival compared to control-treated mice” value is “statistically significant prolongation in event-free survival”. Also, the “Clearance (Cl F obs)” value in data set [7] (setting [9]) is 151 (115, 197) l/hr; in data set [7] (setting [10]), 152 (93, 250) l/hr; in data set [7] (dose level 2 (230 mg/m^2/dose), n = 2/3, geometric mean (95% confidence interval), oral, cycle 1), 181 (76, 427) l/hr; in data set [7] (dose level 3 (300 mg/m^2/dose), n = 3/3, geometric mean (95% confidence interval), oral, cycle 1), 129 (64, 260) l/hr; in data set [7] (dose level 4 (360 mg/m^2/dose), n = 3/3, geometric mean (95% confidence interval), oral, cycle 1) it was 322 (159, 649) l/hr; in data set [7] (setting [11]), 118 (79, 177) l/hr. Also, the Cmax in data set [7] (setting [9]) was 428 (348, 526) ng/ml; in data set [7] (human, serum, oral), 158 to 980 ng/mL; in data set [7] (human, serum, po, 300 mg/m2), 552 ng/mL; in data set [7] (human, serum, po, 430 mg/m2), 587 ng/mL. Besides, the t½ is reported as 2.6 (1.7, 4.0) hr in data set [7] (setting [10]) and 3.2 (2.3, 4.5) hr in data set [7] (setting [11]). Moreover, the AUC(0-inf) (in general, total exposure, with the tail of the curve extrapolated) in data set [7] (human, serum, oral) is 930 to 5780 ng·h/mL; in data set [7] (human, serum, po), 2170 ng·h/mL; in data set [7] (human, serum, po, 180 mg/m2) it was 1350 ng·h/mL; in data set [7] (human, serum, po, 230 mg/m2) it was 1670 ng·h/mL; in data set [7] (human, serum, po, 300 mg/m2), 2640 ng·h/mL; in data set [7] (human, serum, po, 430 mg/m2), 3250 ng·h/mL. In addition, in data set [7] (human, serum, oral), the clearance lay in the range of 967 to 7250 mL/min. The half-life (in general, how long it takes for the measured level to halve) was 1.2 to 10.1 h in data set [7] (human, serum, oral) and 2.4 h in data set [7] (human, serum, po, 230 mg/m2). The “Number of patients with grade 3+ upper respiratory infection” value in data set [8] (all cycles) amounted to 1; in data set [8] (first cycle), 0.
